Assay results reported in ChEMBL document CHEMBL4811258, “Potent Antimalarials with Development Potential Identified by Structure-Guided Computational Optimization of a Pyrrole-Based Dihydroorotate Dehydrogenase Inhibitor Series” (J Med Chem, 2021).
Activity calls are given as the source filed them. The calls are words filed in the database; no cut-off is given here.

Columns and labels:
[1] = Inhibition of Plasmodium falciparum DHODH expressed in Escherichia coli BL21-DE3 using L-dihydroorotate as substrate by steady-state DCIP method
[2] = Inhibition of Plasmodium vivax DHODH expressed in Escherichia coli BL21-DE3 using L-dihydroorotate as substrate by steady-state DCIP method
[3] = molecular target: Dihydroorotate dehydrogenase (quinone), mitochondrial (Homo sapiens, UniProt Q02127); format: ADME
[4] = Lipophilicity, logD of compound at pH 7.4; format: physicochemical; conditions: buffer
Plasmodium falciparum [5] = experiment: microbe, parasite or virus in culture; conditions: 3D7, 72 h
[6] = Oral bioavailability in mouse at 19 mg/kg; format: ADME, organism-based; conditions: in vivo
Plasmodium falciparum [7] = tested on: Plasmodium falciparum
Cytochrome P450 3A4 = Cytochrome P450 3A4 (Homo sapiens, UniProt P08684)
[8] = molecular target: Dihydroorotate dehydrogenase (quinone), mitochondrial (Rattus norvegicus, UniProt Q63707); experiment: Inhibition of rat DHODH up to 100 uM
[9] = molecular target: Dihydroorotate dehydrogenase (quinone), mitochondrial (Mus musculus, UniProt O35435); experiment: Inhibition of mouse DHODH up to 100 uM
[10] = Inhibition of dog DHODH up to 100 uM; parameters: species or system Canis lupus familiaris
L1210 = experiment: Cytotoxicity against mouse L1210 cells; format: cell-based
HepG2 = experiment: Cytotoxicity against human HepG2 cells; format: cell-based
[11] = Mutagenicity in Salmonella typhimurium by Ames test; format: toxicity; conditions: salmonella enterica subsp. enterica serovar typhimurium
Plasmodium falciparum [12] = experiment: Antimalarial activity against Plasmodium falciparum 3D70087/N9 infected in orally dosed NOD-SCID IL2Rgamma null mouse assessed as parasitemia level in human red blood cells at 10 to 100 mg/kg, po administered days after 1 day post infection twice daily for 6 days measured on day 7 by flow cytometry; format: functional, organism-based; conditions: dose 10-100 mg/kg

Dihydroorotate dehydrogenase (quinone), mitochondrial (Homo sapiens, UniProt Q02127), sequence (Q02127 whole entry): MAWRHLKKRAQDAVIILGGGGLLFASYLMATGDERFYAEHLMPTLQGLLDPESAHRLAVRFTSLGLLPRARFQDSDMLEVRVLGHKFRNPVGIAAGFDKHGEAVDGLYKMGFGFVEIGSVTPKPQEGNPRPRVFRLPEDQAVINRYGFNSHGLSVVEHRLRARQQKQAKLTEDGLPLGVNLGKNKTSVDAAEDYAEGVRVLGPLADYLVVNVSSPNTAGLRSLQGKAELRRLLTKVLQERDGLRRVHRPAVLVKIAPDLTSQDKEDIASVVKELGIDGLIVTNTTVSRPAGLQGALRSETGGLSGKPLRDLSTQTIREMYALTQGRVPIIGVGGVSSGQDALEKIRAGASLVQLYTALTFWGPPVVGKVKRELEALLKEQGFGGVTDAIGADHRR
Dihydroorotate dehydrogenase (quinone), mitochondrial (Rattus norvegicus, UniProt Q63707), sequence (Q63707 whole entry): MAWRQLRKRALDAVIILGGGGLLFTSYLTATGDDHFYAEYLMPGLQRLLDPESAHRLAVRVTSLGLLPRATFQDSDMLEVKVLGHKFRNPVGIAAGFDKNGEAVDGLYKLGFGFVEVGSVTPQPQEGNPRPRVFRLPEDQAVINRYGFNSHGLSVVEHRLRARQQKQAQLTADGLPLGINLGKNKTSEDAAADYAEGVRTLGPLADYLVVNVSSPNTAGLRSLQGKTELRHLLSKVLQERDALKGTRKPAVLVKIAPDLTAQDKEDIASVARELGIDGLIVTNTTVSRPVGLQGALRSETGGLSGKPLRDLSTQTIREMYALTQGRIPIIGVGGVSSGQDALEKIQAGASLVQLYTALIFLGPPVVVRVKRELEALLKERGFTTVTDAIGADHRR
Cytochrome P450 3A4, sequence (P08684 whole entry): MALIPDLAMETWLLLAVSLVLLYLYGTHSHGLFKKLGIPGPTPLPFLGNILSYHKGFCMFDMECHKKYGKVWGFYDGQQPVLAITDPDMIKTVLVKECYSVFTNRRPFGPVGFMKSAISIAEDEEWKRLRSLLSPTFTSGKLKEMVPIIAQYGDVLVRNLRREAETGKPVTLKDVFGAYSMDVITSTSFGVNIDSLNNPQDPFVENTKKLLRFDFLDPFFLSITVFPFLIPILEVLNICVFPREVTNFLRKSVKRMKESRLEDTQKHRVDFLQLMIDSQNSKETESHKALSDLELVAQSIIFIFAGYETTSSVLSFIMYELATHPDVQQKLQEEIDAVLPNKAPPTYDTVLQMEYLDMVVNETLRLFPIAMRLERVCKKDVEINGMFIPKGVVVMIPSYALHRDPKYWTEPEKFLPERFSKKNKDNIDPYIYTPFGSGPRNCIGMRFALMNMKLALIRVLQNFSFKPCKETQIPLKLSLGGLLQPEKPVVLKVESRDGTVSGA
Dihydroorotate dehydrogenase (quinone), mitochondrial (Mus musculus, UniProt O35435), sequence (O35435 whole entry): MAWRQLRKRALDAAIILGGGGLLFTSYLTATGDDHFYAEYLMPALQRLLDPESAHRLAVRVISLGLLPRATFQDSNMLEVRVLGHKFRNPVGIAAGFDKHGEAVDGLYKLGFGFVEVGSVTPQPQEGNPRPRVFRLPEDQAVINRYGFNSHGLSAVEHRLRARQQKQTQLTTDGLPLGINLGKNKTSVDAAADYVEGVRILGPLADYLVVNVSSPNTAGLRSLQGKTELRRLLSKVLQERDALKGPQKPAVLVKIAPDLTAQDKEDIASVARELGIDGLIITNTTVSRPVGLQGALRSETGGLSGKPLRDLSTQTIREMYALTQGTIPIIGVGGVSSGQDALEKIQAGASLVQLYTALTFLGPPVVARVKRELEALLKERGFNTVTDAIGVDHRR

Compound	IC50 [1] [µM]	IC50 [2] [µM]	IC50 [3] [µM]	logD [4]	EC50 (Plasmodium falciparum [5]) [µM]	further results
Cc1c(Cc2cccc3ccncc23)c[nH]c1C(=O)NC1CC1	0.011	0.016	> 100	< 3.4	0.0022	
Cc1c(Cc2cccc3ccncc23)c[nH]c1C(=O)NCC(F)(F)F	0.035	0.017	> 100	< 3.4	0.0096	
Cc1c(C2(c3ccc(C(F)(F)F)nc3)CC2)c[nH]c1C(=O)NC(C)c1cc(C(N)=O)[nH]n1 (stereo in doubt; form 1)	0.14	0.17				F [6]: 18%; EC50 (Plasmodium falciparum [7]): 0.046 µM
Cc1c(C2(c3ccc(C(F)(F)F)nc3)CC2)c[nH]c1C(=O)NC(C)c1c[nH]cn1 (stereo in doubt; form 1)					43	TDI (Cytochrome P450 3A4): Active
Cc1c(C2(c3ccc(C(F)(F)F)c(C#N)c3)CC2)c[nH]c1C(=O)NC(C)c1nc[nH]n1 (stereo in doubt; form 1) [listing 1 of 2 here]						inhibition (INH) [8]: Not Active; inhibition (INH) [9]: Not Active; inhibition (INH) [10]: Not Active; Activity (L1210): Non-Toxic; Activity (HepG2): Non-Toxic; Activity [11]: Non-Toxic
Cc1c(C2(c3ccc(C(F)(F)F)c(C#N)c3)CC2)c[nH]c1C(=O)NC(C)c1nc[nH]n1 (stereo in doubt; form 1) [listing 2 of 2 here]						Activity (Plasmodium falciparum [12]): Active
